The target of test [1] is T1, CCK1 (CCKA) (h) (Homo sapiens, UniProt P32238).
T1 construct: expressed in transfected cells; host or cells: CHO cells
T1 sequence (P32238 1-428): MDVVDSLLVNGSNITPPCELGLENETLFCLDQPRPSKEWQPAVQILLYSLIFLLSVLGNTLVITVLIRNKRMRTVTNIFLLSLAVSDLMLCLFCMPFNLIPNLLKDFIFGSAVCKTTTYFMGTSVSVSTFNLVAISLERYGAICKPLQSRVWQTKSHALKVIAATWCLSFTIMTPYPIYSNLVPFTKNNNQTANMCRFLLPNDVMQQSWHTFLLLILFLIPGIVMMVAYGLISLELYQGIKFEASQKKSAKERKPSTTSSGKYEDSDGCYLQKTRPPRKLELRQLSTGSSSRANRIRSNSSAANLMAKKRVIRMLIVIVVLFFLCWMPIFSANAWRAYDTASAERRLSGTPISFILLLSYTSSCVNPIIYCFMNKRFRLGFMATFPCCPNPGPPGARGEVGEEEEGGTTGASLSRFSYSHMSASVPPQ
Nature of the test: Radioligand binding CCK1 (CCKA) (h) (agonist radioligand), [^125I]CCK-8s, CHO cells. The following applies: CCK1 (CCKA) (h) (agonist radiolig.). The procedure: (§1) Methods—Binding Assays: In vitro binding assays were performed using human recombinant receptors expressed in mammalian cell lines. Receptors were expressed in either HEK-293 or CHO cells depending on the target, and assay conditions (radioligand, concentration, nonspecific competitor, temperature, and incubation time) were optimized for each receptor. All assays were conducted in triplicate, and specific binding was quantified by scintillation counting as the detection method for each listed assay.
(§2) Specific binding was expressed as a percentage of control-specific binding, and percent inhibition was calculated using the formula in Ex. 8 above. Half-maximal inhibitory concentrations (IC50) were determined by non-linear regression analysis of the inhibition curves using the Hill equation (see Ex. 8). Inhibition constants (Ki) were calculated using the Cheng-Prusoff equation (see Ex. 8). KD values used in these calculations had been previously established for each receptor under the assay conditions (see Table 6). Data analysis was performed using software developed at Cerep and validated against SigmaPlot 4.0 for Windows.

Test [2] has as its target T2, Lck kinase (h) (Homo sapiens, UniProt P06239).
T2 construct: host or cells: insect cells
In words: Enzyme assay Lck kinase (h), LANCE. It is filed as biochemical. The procedure: (§3) Methods—Enzyme and Uptake Assays: In vitro enzyme and uptake assays were conducted by Eurofins Discovery using human recombinant enzymes expressed in various mammalian and insect cell lines. Enzymatic activity was measured using appropriate substrates or tracers under conditions optimized for each target, as detailed in Table 7. Reactions were incubated at room temperature for a defined duration and terminated according to established protocols. The measured components (either enzymatic products or remaining substrate) were quantified using fluorimetry, photometry, scintillation counting, or LANCE technology, depending on the assay. Assay-specific parameters, including substrate identity, cell line source, incubation time, and detection method, are provided in Table 7.
(§4) All measurements were performed in technical replicates to ensure reproducibility and data quality.
(§5) Results were expressed both as a percentage of control-specific activity and as percent inhibition of control-specific activity. Percent activity was calculated as (measured specific activity/control specific activity)×100, and percent inhibition as 100−[(measured specific activity/control specific activity)×100], based on values obtained in the presence of test compounds. IC50 and EC50 values, along with Hill coefficients (nH), were determined by nonlinear regression analysis of inhibition or concentration-response curves generated from mean replicate values. Hill curve fitting was performed as previously described using software developed at Cerep and validated against SigmaPlot® 4.0 for Windows® (© 1997 by SPSS Inc.).
In general terms: In TR-FRET formats the signal depends on donor and acceptor labels being close together.

In test [3] the target is T3, 5-HT1B (h) (Homo sapiens, UniProt P28222).
T3 construct: expressed in transfected cells; host or cells: Chem-1 RBL cells
T3 sequence (P28222 whole entry): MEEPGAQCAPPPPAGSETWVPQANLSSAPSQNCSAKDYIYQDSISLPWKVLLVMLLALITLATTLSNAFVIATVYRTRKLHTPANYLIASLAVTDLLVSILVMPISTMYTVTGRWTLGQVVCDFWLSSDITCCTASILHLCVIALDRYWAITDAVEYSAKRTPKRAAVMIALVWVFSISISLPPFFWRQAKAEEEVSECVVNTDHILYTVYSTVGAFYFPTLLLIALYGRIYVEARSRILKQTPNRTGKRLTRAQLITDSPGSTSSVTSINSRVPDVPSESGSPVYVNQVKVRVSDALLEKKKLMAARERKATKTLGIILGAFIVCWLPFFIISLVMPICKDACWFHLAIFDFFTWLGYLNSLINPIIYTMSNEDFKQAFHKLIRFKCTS
In words: Radioligand binding 5-HT1B (h) (antagonist radioligand), [^3H]GR125743, Chem-1 RBL cells.

The target of test [4] is T4, PDE4D2(h) (Homo sapiens, UniProt Q08499).
T4 construct: host or cells: Sf9 cells
T4 sequence (Q08499 303-809 limits assumed): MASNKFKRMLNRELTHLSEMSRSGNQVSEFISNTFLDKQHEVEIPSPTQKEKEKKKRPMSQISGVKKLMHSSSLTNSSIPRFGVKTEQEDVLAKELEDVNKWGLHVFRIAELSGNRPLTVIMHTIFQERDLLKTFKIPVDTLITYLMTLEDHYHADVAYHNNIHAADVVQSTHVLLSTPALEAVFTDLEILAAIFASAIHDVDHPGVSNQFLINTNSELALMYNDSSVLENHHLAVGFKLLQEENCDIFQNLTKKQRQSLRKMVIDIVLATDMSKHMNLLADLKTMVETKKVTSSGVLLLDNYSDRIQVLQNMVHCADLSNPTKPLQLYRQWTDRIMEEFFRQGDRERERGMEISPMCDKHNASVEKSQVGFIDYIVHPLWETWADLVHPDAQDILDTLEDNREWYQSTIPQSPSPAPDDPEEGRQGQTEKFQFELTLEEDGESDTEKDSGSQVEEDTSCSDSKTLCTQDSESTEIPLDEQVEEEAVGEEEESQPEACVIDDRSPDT
Nature of the test: Enzyme assay PDE4D2(h), [3H]cAMP, scintillation counting. It is filed as biochemical. The method, then: as §3, §4, §5

In test [5] the target is T5, A2A (h) (Homo sapiens, UniProt P29274).
T5 construct: expressed in transfected cells; host or cells: HEK-293 cells
T5 sequence (P29274 whole entry): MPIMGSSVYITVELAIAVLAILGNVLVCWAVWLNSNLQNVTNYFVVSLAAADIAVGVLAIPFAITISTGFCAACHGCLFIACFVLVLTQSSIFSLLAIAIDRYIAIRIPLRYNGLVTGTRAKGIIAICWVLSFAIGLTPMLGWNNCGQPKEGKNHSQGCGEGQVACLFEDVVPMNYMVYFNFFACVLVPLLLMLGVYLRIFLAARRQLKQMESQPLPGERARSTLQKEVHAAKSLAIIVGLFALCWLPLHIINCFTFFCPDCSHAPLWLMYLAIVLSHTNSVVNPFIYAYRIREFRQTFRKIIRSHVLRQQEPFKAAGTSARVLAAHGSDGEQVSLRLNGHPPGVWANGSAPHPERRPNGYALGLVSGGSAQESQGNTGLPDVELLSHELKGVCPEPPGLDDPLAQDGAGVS
In words: Radioligand binding A2A (h) (agonist radioligand), [^3H]CGS 21680, HEK-293 cells. The method, then:
as §1, §2

Test [6] has as its target T6, CB1 (h) (Homo sapiens, UniProt P21554).
T6 construct: expressed in transfected cells; host or cells: Chem-RBL cells
In words: Radioligand binding CB1 (h) (agonist radioligand), [^3H]CP 55940, Chem-RBL cells.

Test [7] concerns the target T7, V1a (h) (Homo sapiens, UniProt P37288).
T7 construct: expressed in transfected cells; host or cells: CHO cells
Nature of the test: Radioligand binding V1a (h) (agonist radioligand), [^3H]AVP, CHO cells. The procedure:
as §1, §2

The subject of test [8] is BZD (central). In words: Radioligand binding BZD (central) (agonist radioligand), [^3H]flunitrazepam, rat cerebral cortex.
The target in test [9] is T8, delta (DOP) (h) (Homo sapiens, UniProt P41143).
T8 construct: expressed in transfected cells; host or cells: Chem-1 RBL
T8 sequence (P41143 whole entry): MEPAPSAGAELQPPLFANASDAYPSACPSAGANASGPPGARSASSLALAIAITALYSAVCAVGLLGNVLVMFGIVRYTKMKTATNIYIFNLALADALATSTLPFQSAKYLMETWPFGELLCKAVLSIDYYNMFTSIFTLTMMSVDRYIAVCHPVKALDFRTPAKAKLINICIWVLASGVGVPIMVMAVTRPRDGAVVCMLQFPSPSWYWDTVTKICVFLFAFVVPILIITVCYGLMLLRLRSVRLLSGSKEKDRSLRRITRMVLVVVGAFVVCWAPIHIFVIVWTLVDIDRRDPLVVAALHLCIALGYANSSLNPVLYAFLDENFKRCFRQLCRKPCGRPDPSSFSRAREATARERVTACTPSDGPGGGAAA
In words: Radioligand binding delta (DOP) (h) (agonist radioligand), [^3H]DALE, Chem-1 RBL. The following applies: delta (DOP) (h) (agonist radiolig.). The method, then:
as §1, §2

Test [10] addresses T9, GR (h) (Homo sapiens, UniProt P04150).
T9 construct: human endog; endogenous in cells; host or cells: IM-9 cells
T9 sequence (P04150 1-777): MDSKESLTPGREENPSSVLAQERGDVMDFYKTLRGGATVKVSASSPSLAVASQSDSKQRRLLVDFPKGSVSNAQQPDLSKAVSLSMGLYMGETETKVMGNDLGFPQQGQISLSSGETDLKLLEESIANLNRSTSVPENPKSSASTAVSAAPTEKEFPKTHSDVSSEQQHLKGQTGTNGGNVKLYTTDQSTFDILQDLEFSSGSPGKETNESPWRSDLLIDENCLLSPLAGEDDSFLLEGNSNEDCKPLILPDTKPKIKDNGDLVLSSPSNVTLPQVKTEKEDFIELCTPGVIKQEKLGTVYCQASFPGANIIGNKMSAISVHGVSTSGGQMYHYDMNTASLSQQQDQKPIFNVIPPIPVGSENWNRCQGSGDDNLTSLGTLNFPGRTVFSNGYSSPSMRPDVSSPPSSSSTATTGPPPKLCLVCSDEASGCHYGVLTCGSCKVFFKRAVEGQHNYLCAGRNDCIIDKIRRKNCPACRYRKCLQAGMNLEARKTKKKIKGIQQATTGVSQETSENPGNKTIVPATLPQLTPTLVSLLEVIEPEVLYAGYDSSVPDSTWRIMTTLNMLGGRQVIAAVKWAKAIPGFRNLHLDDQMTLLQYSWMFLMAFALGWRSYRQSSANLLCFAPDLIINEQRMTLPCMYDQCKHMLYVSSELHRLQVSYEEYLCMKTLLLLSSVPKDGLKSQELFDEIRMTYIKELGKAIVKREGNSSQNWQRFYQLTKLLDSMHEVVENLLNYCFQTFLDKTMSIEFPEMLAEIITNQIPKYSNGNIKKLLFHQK
In words: Radioligand binding GR (h) (agonist radioligand), [^3H]dexamethasone, IM-9 cells.

Here are results for four compounds from patent US12692221B2 (priority 2024, dated 2026).

The structures appear in SMILES notation.

T7 sequence (P37288 whole entry): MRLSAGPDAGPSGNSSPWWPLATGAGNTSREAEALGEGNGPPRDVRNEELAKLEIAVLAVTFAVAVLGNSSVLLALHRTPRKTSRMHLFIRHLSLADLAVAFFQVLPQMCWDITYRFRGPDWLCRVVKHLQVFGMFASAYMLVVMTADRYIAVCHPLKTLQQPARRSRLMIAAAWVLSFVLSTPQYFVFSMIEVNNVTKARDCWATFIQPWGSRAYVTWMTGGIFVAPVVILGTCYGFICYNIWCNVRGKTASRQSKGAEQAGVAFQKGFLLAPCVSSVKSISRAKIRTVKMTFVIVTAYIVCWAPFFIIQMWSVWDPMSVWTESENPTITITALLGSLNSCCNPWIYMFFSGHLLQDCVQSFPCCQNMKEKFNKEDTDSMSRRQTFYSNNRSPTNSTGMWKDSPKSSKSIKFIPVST
T2 sequence (P06239 whole entry): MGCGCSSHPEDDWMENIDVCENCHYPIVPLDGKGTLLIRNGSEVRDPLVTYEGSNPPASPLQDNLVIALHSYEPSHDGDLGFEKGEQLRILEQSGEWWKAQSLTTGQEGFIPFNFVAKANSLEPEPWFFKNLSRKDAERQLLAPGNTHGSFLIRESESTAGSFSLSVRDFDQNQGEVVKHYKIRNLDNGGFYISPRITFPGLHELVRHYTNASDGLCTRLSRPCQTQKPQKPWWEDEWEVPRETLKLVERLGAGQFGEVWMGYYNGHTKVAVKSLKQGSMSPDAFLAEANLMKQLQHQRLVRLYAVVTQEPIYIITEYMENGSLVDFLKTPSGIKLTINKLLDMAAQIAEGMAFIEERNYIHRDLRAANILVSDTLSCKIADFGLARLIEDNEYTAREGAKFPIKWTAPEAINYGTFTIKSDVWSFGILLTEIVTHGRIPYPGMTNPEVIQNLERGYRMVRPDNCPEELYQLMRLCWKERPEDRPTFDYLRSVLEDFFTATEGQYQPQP
T6 sequence (P21554 whole entry): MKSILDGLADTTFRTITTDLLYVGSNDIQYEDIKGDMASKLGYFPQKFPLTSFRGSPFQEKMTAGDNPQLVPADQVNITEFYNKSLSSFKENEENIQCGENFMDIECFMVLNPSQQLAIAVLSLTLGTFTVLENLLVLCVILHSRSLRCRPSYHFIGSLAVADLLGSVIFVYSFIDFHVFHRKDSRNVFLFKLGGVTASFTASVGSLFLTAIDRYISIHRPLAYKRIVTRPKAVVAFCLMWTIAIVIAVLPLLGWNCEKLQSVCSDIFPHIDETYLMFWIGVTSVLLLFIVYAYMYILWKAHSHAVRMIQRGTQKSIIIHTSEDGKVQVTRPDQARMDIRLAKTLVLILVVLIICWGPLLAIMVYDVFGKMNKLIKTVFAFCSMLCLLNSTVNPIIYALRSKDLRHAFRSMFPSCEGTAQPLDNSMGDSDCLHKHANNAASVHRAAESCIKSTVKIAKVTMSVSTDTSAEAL

For `COCc1cc(CCN)c(O)cc1CC(C)C` [2CiBu-2OH-5MM, 2-(2-aminoethyl)-5-isobutyl-4-(methoxymethyl)phenol], the “Mean Percent Inhibition of Control Specific Binding” value (“Mean Percent Inhibition” for short) in test [1] is reported as −0.1%; in test [2] it was 12.8%; in [3], 12.6%; in test [4], 67.4%; in test [5], 11.0%; in [6], −1.9%. For the same compound, the “Mean Percent Inhibition” value is listed as 4.8% in [7], 8.3% in test [8], 19.5% in test [9] and −3.1% in test [10].

Consider `COCCc1cc(CCN)c(OC)cc1Br` [Compound 2CB-5ME, reference compound], for which the “Mean Percent Inhibition” value is reported as 3.3% in test [1]; 23.3% in test [2]; 91.4% in test [3]; −5.7% in test [4]; −21.3% in test [5]; 4.0% in test [6]. The “Mean Percent Inhibition” value in test [7] is listed as 11.2%; in test [8], −3.0%; in test [9] it was 9.7%; in [10] it was −0.5%.

`COCc1cc(CCN)c(OC)cc1Br` [Compound 2CB-5MM, 2-(4-bromo-2-methoxy-5-(methoxymethyl)phenyl)ethan-1-amine]: the “Mean Percent Inhibition” value is listed as −11.5% in [1]; 5.9% in test [2]; 74.2% in test [3]; −0.5% in test [4]; 12.2% in test [5]; −10.4% in [6]. Moreover, the “Mean Percent Inhibition” value in [7] was 5.5%; in test [8] it was −1.8%; in test [9], 8.5%; in test [10], −7.2%.

`COCc1cc(CCN)c(OC)cc1CC(C)C` [Compound 2CiBu-5MM, 2-[4-isobutyl-2-methoxy-5-(methoxymethyl)phenyl]ethanamine]: the “Mean Percent Inhibition” value in test [1] is listed as 12.2%; in test [2], −6.6%; in [3], 57.3%; in test [4] it was 3.0%; in test [5], 1.1%; in test [6] it was −5.6%. For the same compound, the “Mean Percent Inhibition” value is reported as 5.3% in test [7], 6.6% in test [8], 11.9% in test [9] and −3.9% in test [10].
